These results are taken from ChEMBL document CHEMBL3779881, “Property Focused Structure-Based Optimization of Small Molecule Inhibitors of the Protein-Protein Interaction between Menin and Mixed Lineage Leukemia (MLL)” (J Med Chem, 2016).

The target in data set [1] is Menin/Histone-lysine N-methyltransferase MLL (Homo sapiens, UniProt O00255). Put plainly: Inhibition of menin-MLL interaction (unknown origin) after 1 hr by fluorescence polarization assay. It counts as protein assay. On the technique in general: In fluorescence polarisation assays a small probe gives low polarisation when free and higher when bound to something large.

The nature of data set [2]: Growth inhibition of MLL-AF9 transformed mouse bone marrow cells after 7 days by MTT assay. It counts as functional. The following applies: Bone marrow cell, 168 h. Background: Tetrazolium assays rely on reduction of a dye to a coloured formazan, in cell work by metabolically active cells.
Data set [3] can be described thus: Growth inhibition of Hoxa9/Meis1 transformed mouse bone marrow cells after 7 days by MTT assay. It counts as functional. The following applies: Bone marrow cell, 168 h.
Data set [4] relates to Bone marrow cell. Nature of the data set: Selectivity index, ratio of GI50 for Hoxa9/Meis1 transformed mouse bone marrow cells to GI50 for MLL-AF9 transformed mouse bone marrow cells. It counts as functional.
The nature of data set [5]: Half life in CD-1 mouse liver microsomes at 1 uM after 3 to 60 mins by LC-MS/MS analysis. It counts as ADME.

Sequence of Menin/Histone-lysine N-methyltransferase MLL (O00255 whole entry): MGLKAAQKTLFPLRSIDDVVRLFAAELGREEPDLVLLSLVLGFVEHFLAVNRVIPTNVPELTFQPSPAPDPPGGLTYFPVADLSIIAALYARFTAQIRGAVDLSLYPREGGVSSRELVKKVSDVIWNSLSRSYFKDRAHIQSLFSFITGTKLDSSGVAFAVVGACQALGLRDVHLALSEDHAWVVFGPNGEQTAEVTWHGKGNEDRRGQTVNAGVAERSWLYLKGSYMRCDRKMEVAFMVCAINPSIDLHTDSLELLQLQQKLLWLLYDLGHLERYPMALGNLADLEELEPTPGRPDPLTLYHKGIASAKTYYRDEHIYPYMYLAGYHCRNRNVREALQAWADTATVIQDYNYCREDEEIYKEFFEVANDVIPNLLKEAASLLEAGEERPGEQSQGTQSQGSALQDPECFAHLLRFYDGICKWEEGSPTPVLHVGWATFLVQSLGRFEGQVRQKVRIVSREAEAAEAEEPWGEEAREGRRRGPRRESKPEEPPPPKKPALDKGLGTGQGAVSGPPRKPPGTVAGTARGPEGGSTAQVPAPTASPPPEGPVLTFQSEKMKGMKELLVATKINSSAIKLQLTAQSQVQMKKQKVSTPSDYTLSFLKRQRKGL
Sequence of Menin/Histone-lysine N-methyltransferase MLL (Q03164 1-2718 partner limits assumed): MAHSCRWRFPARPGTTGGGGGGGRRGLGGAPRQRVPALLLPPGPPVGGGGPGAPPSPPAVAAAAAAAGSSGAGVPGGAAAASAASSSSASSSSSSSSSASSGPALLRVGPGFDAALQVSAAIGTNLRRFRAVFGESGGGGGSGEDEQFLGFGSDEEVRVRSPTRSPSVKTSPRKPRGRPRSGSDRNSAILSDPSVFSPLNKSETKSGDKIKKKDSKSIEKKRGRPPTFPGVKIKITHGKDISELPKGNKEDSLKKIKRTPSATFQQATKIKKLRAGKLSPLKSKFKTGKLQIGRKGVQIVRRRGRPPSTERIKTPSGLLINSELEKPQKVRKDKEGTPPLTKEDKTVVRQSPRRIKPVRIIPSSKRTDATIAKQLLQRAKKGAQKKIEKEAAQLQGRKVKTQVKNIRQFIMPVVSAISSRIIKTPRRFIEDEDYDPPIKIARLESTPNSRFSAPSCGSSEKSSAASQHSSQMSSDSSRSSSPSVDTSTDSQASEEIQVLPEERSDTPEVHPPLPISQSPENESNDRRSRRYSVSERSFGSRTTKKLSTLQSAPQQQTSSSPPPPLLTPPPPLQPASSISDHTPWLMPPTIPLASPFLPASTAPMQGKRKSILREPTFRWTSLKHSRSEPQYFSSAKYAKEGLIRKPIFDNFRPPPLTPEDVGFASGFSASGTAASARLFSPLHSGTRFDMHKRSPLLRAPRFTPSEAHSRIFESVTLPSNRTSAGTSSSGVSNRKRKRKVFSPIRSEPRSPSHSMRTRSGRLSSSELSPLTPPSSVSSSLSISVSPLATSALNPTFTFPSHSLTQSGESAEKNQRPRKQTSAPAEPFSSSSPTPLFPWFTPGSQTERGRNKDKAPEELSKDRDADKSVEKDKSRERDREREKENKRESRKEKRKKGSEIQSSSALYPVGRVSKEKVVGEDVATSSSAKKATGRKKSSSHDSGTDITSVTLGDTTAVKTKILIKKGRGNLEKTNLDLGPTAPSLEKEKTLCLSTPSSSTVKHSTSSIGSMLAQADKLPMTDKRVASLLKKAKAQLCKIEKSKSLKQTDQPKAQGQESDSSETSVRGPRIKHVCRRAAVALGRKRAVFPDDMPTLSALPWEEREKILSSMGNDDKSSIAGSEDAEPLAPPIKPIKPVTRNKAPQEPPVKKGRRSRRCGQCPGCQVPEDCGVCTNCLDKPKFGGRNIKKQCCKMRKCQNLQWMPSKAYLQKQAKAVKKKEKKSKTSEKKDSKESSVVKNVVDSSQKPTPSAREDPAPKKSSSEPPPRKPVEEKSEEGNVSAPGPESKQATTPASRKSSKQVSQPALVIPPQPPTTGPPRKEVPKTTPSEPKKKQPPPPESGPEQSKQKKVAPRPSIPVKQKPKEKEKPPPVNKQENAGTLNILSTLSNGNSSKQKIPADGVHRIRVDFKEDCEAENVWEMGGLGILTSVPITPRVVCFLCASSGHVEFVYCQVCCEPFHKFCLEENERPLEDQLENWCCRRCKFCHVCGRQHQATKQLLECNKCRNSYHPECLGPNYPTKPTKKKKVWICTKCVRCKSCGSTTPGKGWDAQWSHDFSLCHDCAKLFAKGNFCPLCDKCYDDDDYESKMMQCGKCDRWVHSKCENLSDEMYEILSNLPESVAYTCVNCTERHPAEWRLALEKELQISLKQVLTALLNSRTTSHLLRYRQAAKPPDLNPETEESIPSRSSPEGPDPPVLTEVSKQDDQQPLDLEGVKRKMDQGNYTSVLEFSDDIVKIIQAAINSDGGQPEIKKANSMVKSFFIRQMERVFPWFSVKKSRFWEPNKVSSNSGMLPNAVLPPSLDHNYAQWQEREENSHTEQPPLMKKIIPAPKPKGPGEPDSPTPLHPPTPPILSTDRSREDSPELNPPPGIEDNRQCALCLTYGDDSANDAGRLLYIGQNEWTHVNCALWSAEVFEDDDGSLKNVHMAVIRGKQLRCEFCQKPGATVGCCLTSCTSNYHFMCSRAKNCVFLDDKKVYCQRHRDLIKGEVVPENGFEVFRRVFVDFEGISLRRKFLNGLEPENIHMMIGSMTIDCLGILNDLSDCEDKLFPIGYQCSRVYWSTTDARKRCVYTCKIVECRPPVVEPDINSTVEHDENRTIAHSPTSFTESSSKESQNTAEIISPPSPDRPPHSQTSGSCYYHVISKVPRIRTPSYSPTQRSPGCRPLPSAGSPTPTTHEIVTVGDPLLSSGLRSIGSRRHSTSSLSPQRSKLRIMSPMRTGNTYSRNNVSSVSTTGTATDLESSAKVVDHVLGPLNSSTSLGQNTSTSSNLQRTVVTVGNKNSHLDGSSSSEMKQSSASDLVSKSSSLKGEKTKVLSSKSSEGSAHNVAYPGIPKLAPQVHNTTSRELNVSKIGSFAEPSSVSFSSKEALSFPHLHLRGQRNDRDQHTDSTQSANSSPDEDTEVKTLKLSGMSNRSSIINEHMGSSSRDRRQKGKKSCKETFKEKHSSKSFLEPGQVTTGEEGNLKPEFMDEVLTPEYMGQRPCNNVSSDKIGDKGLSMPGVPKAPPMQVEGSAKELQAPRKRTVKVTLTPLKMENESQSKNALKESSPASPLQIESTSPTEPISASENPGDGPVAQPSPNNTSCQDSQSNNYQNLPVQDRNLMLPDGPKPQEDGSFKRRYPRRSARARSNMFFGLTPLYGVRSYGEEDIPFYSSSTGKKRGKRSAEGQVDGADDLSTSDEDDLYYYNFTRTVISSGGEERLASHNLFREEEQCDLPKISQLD
Sequence of Menin/Histone-lysine N-methyltransferase MLL (Q03164 2719-3969 partner limits assumed): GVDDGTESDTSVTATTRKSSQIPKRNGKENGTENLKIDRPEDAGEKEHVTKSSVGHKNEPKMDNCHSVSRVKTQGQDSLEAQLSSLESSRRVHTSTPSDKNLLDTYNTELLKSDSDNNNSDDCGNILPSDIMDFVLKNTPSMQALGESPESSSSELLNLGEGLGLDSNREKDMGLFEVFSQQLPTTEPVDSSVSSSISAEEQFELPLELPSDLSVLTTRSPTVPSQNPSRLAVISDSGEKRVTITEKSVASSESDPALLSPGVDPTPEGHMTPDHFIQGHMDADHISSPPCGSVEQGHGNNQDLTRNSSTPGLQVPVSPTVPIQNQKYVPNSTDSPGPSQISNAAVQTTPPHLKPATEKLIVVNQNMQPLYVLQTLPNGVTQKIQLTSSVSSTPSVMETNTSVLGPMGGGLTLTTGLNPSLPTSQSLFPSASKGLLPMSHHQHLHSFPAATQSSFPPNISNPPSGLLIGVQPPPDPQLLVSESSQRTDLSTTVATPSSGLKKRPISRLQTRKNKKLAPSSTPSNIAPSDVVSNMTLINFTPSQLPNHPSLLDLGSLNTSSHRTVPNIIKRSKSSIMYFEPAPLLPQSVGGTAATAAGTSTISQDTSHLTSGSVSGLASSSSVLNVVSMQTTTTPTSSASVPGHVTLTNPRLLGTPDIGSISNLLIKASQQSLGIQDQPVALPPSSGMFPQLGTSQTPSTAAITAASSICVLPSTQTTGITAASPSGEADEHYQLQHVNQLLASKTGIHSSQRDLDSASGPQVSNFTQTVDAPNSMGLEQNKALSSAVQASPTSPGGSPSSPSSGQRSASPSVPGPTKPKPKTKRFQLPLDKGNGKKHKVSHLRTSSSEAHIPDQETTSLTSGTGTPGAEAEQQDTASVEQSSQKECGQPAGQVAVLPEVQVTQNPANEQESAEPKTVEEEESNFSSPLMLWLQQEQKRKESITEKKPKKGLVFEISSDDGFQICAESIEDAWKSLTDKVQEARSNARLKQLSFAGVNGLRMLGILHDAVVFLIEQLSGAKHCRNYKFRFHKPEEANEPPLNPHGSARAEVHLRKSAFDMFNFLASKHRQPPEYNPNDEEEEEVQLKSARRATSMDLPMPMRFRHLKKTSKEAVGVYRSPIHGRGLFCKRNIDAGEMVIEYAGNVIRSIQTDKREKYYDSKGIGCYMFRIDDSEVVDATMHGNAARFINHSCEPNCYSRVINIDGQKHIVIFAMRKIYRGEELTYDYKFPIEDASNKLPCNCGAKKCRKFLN

With `N#Cc1cc2cc(CN3CCC(Nc4ncnc5sc(CC(F)(F)F)cc45)CC3)ccc2n1Cc1cn[nH]c1`, the IC50 (as a rule, the concentration at which inhibition is half-maximal) in data set [1] came to 23 nM. In addition, the GI50 (as a rule, the concentration that inhibits growth by half) in data set [2] turned out to be 260 nM; in data set [3], 6900 nM. Also, the RatioGI50 in data set [4] came to 27. The molecule also displayed a t1/2 in data set [5] of 8.3 min.

In data set [1], `N#Cc1[nH]c2ccc(CN3CCC(Nc4ncnc5sc(CC(F)(F)F)cc45)CC3)cc2c1N` came in with an IC50 of 124 nM. Moreover, the GI50 in data set [2] amounted to 5200 nM. For the same molecule, the t1/2 in data set [5] worked out at 27 min.

Turning to `COc1cc2[nH]c(C#N)cc2cc1CN1CCC(Nc2ncnc3sc(CC(F)(F)F)cc23)CC1`, the IC50 in data set [1] turned out to be 22 nM. The GI50 in data set [2] was determined as 340 nM; in data set [3], 16000 nM. Further, the RatioGI50 in data set [4] was determined as 47. For the same molecule, in data set [5], the t1/2 is 3.7 min.

As for `N#Cc1cc2cc(CN3CCC(Nc4ncnc5sc(CC(F)(F)F)cc45)CC3)ccc2n1Cc1c[nH]nn1`, the IC50 in data set [1] turned out to be 27 nM. The GI50 came out at 330 nM in data set [2] and 10000 nM in data set [3]. In addition, the RatioGI50 in data set [4] was 30. Further, the t1/2 in data set [5] turned out to be 11 min.

Turning to `COc1cc2c(cc(C#N)n2CC(N)=O)c(C)c1CN1CCC(Nc2ncnc3sc(CC(F)(F)F)cc23)CC1`, the IC50 in data set [1] is 37 nM. The GI50 in data set [2] was 420 nM; in data set [3], above 25000 nM. For the same molecule, the RatioGI50 in data set [4] is above 60. Moreover, the t1/2 in data set [5] is given as above 60 min.

In turn, `Cc1c(CN2CCC(Nc3ncnc4sc(CC(F)(F)F)cc34)CC2)c(O)cc2c1cc(C#N)n2Cc1cn[nH]c1` displayed a half-maximal inhibitory concentration (IC50) in data set [1] of 18 nM. Also, the GI50 in data set [2] came to 270 nM; in data set [3], 13000 nM. For the same molecule, the RatioGI50 in data set [4] was 48. Moreover, the t1/2 in data set [5] is 25 min.

On to `Cc1c(CN2CCC(Nc3ncnc4sc(CC(F)(F)F)cc34)CC2)ccc2[nH]c(C#N)cc12`, for which the GI50 in data set [2] is 200 nM; in data set [3], 5600 nM.

On to `N#Cc1cc2cc(CN3CCC(Nc4ncnc5sc(CC(F)(F)F)cc45)CC3)ccc2n1C[C@H](O)CO`, for which the IC50 in data set [1] stood at 42 nM. The molecule also yielded a GI50 in data set [2] of 3800 nM. For the same molecule, the t1/2 in data set [5] is above 60 min.

Consider `N#Cc1cc2cc(CN3CCC(Nc4ncnc5sc(CC(F)(F)F)cc45)CC3)ccc2n1CC(O)CO` (racemic), for which the midpoint of inhibition in data set [1], the IC50, lay at 37 nM. The GI50 is 3400 nM in data set [2] and above 12000 nM in data set [3]. For the same molecule, in data set [4], the RatioGI50 was above 3.5. The molecule also gave a t1/2 in data set [5] above 60 min.

Turning to `N#Cc1cc2cc(CN3CCC(Nc4ncnc5sc(CC(F)(F)F)cc45)CC3)c(F)cc2[nH]1`, in data set [1], the IC50 was determined as 109 nM. In addition, the concentration for 50% growth inhibition (GI50) was 3000 nM in data set [2] and above 12000 nM in data set [3]. Besides, in data set [4], the RatioGI50 was above 4. The molecule further came in with a t1/2 in data set [5] of 9 min.

On to `CCOc1cc2[nH]c(C#N)cc2cc1CN1CCC(Nc2ncnc3sc(CC(F)(F)F)cc23)CC1`, for which the midpoint of inhibition in data set [1], the IC50, lay at 47 nM. The GI50 in data set [2] worked out at 450 nM; in data set [3] it was 5300 nM. Moreover, the RatioGI50 in data set [4] was 12. In data set [5], this molecule yielded a t1/2 of 11 min.

In data set [1], `N#Cc1cc2cc(CN3CCC(Nc4ncnc5sc(CC(F)(F)F)cc45)CC3)ccc2n1CCO` yielded an IC50 of 35 nM. Further, the GI50 in data set [2] came to 1100 nM; in data set [3], 6200 nM. Besides, the RatioGI50 in data set [4] was determined as 5.6. The same molecule displayed a t1/2 in data set [5] of 18 min.

Consider `Cc1c(CN2CCC(Nc3ncnc4sc(CC(F)(F)F)cc34)CC2)ccc2c1cc(C#N)n2CC(N)=O`, for which the IC50 in data set [1] amounted to 27 nM. Also, the figures for the GI50 in data set [2] and in data set [3] were 470 nM and above 25000 nM, respectively. In addition, in data set [4], the RatioGI50 is above 53. The t1/2 in data set [5] worked out at 59 min.

Turning to `N#Cc1cc2cc(CN3CCC(Nc4ncnc5sc(CC(F)(F)F)cc45)CC3)c(O)cc2[nH]1`, in data set [1], the IC50 is 20 nM. In addition, the GI50 was 180 nM in data set [2] and above 10000 nM in data set [3]. In addition, the RatioGI50 in data set [4] is given as above 56. In data set [5], this molecule yielded a t1/2 of 6.6 min.

Take `N#Cc1cc2c(Cl)c(CN3CCC(Nc4ncnc5sc(CC(F)(F)F)cc45)CC3)ccc2[nH]1`: in data set [1], the IC50 is 22 nM. For the same molecule, the 50% growth inhibitory concentration (GI50) in data set [2] worked out at 1100 nM; in data set [3] it was 11000 nM. Besides, the RatioGI50 in data set [4] turned out to be 10. Further, the t1/2 in data set [5] stood at 28 min.

Take `N#Cc1[nH]c2ccc(CN3CCC(Nc4ncnc5sc(CC(F)(F)F)cc45)CC3)cc2c1F`: the IC50 in data set [1] was 96 nM. In data set [2], halving of growth (GI50) required 1700 nM. In addition, the t1/2 in data set [5] stood at 5.7 min.

Take `Cc1c(CN2CCC(Nc3ncnc4sc(CC(F)(F)F)cc34)CC2)ccc2c1cc(C#N)n2CCO`: the IC50 in data set [1] amounted to 44 nM. The GI50 in data set [2] came out at 440 nM; in data set [3], 5600 nM. Further, the RatioGI50 in data set [4] is on record as 13. The t1/2 in data set [5] is recorded as 23 min.

With `Cc1c(CN2CCC(Nc3ncnc4sc(CC(F)(F)F)cc34)CC2)c(O)cc2c1cc(C#N)n2Cc1c[nH]nn1`, inhibition in data set [1] was half-maximal at 17 nM (IC50). The results for the GI50 in data set [2] and in data set [3] were 420 nM and 10000 nM, respectively. In addition, in data set [4], the RatioGI50 turned out to be 24. In data set [5], this molecule yielded a t1/2 of 25 min.

For `CO[C@H](CO)Cn1c(C#N)cc2cc(CN3CCC(Nc4ncnc5sc(CC(F)(F)F)cc45)CC3)ccc21`, the IC50 in data set [1] worked out at 37 nM. Moreover, the GI50 in data set [2] is 660 nM; in data set [3], 6900 nM. For the same molecule, in data set [4], the RatioGI50 was 11. The molecule further came in with a t1/2 in data set [5] of 5.2 min.

`Cc1c(CN2CCC(Nc3ncnc4sc(CC(F)(F)F)cc34)CC2)ccc2c1cc(C#N)n2Cc1c[nH]nn1` showed an IC50 in data set [1] of 23 nM. Moreover, the GI50 came out at 250 nM in data set [2] and 8000 nM in data set [3]. Moreover, the RatioGI50 in data set [4] came to 32. Moreover, the t1/2 in data set [5] was found to be 59 min.

In the case of `COc1cc2c(cc1CN1CCC(Nc3ncnc4sc(CC(F)(F)F)cc34)CC1)cc(C#N)n2Cc1cn[nH]c1`, 24 nM corresponded to half-maximal inhibition in data set [1] (IC50). In addition, the 50% growth inhibitory concentration (GI50) in data set [2] amounted to 290 nM; in data set [3], 6700 nM. Moreover, the RatioGI50 in data set [4] amounted to 23. In data set [5], this molecule had a t1/2 of 35 min.

As to `Cc1c(C#N)[nH]c2ccc(CN3CCC(Nc4ncnc5sc(CC(F)(F)F)cc45)CC3)cc12`, the half-inhibitory concentration (IC50) in data set [1] was found to be 111 nM. The molecule further returned a GI50 in data set [2] of 2600 nM. Besides, the t1/2 in data set [5] is reported as 4.8 min.

The molecule `CO[C@@H](CO)Cn1c(C#N)cc2cc(CN3CCC(Nc4ncnc5sc(CC(F)(F)F)cc45)CC3)ccc21` gave an IC50 in data set [1] of 40 nM. Further, the GI50 in data set [2] stood at 360 nM; in data set [3], 9700 nM. Also, the RatioGI50 in data set [4] came out at 27. In addition, in data set [5], the t1/2 is on record as below 3 min.

For `N#Cc1cc2cc(CN3CCC(Nc4ncnc5sc(CC(F)(F)F)cc45)CC3)ccc2n1C[C@@H](O)CO`, inhibition in data set [1] was half-maximal at 46 nM (IC50). Further, the results for the GI50 in data set [2] and in data set [3] were 1700 nM and above 40000 nM, respectively. Moreover, in data set [4], the RatioGI50 is reported as above 24. In data set [5], this molecule had a t1/2 of 48 min.

Molecule `CC(C)OC(CO)Cn1c(C#N)cc2cc(CN3CCC(Nc4ncnc5sc(CC(F)(F)F)cc45)CC3)ccc21` (stereo not drawn) showed a half-maximal inhibitory concentration (IC50) in data set [1] of 23 nM. The values for the GI50 in data set [2] and in data set [3] were 180 nM and 3500 nM, respectively. In addition, in data set [4], the RatioGI50 is listed as 19. Also, in data set [5], the t1/2 is on record as below 3 min.

Turning to `COCC(O)Cn1c(C#N)cc2cc(CN3CCC(Nc4ncnc5sc(CC(F)(F)F)cc45)CC3)ccc21` (stereo not drawn), in data set [1], the IC50 turned out to be 101 nM. For the same molecule, it took 2100 nM to inhibit growth in data set [2] by half (GI50). In data set [5], this molecule gave a t1/2 below 3 min.

The molecule `CC(C(N)=O)n1c(C#N)cc2cc(CN3CCC(Nc4ncnc5sc(CC(F)(F)F)cc45)CC3)ccc21` (stereo not drawn) had an IC50 in data set [1] of 244 nM.
